Measured values reported in publication PMC9848257, “Design and synthesis of novel rigid dibenzo[b,f]azepines through ring closure technique as promising anticancer candidates against leukaemia and acting as selective topoisomerase II inhibitors and DNA intercalators” (Journal of Enzyme Inhibition and Medicinal Chemistry, 2023).

What was measured:
Type in all cases: cell-based
NCI-H522 = assay: NCI-60 one-dose screen, NCI-H522; settings: Homo sapiens; NCI-H522, non-small cell lung cancer; single dose 10 μM; read-out: Growth inhibition %
Protocol: (§1) Anti-proliferative effects of the counterparts 4a–g and 5a–g were screened against 60 human cancer cell lines, following the Developmental Therapeutics Program protocol, National Cancer Institute[35].
(§2) The anti-tumour activity of the fourteen synthesised congeners was investigated at the NCI against a panel of 60 cancer cell lines (NCI-60 Cell One-Dose Screen). The tested dibenzo[b,f]azepine derivatives were screened at a single dose level (10 μM), Table 1.

SNB-19 = assay: NCI-60 one-dose screen, SNB-19; settings: Homo sapiens; SNB-19, CNS cancer; single dose 10 μM; read-out: Growth inhibition %
Protocol: as §1, §2

HCC-2998 = assay: NCI-60 one-dose screen, HCC-2998; settings: Homo sapiens; HCC-2998, colon cancer; single dose 10 μM; read-out: Growth inhibition %
Protocol: as §1, §2

RPMI-8226 = assay: NCI-60 one-dose screen, RPMI-8226; settings: Homo sapiens; RPMI-8226, leukaemia; single dose 10 μM; read-out: Growth inhibition %
Protocol: as §1, §2

786-0 = assay: NCI-60 one-dose screen, 786-0; settings: Homo sapiens; 786-0, renal cancer; single dose 10 μM; read-out: Growth inhibition %
Protocol: as §1, §2

MOLT-4 = assay: NCI-60 one-dose screen, MOLT-4; settings: Homo sapiens; MOLT-4, leukaemia; single dose 10 μM; read-out: Growth inhibition %
Protocol: as §1, §2

SK-MEL-28 = assay: NCI-60 one-dose screen, SK-MEL-28; settings: Homo sapiens; SK-MEL-28, melanoma; single dose 10 μM; read-out: Growth inhibition %
Protocol: as §1, §2

MDA-MB-231-ATCC = assay: NCI-60 one-dose screen, MDA-MB-231-ATCC; settings: Homo sapiens, breast cancer, single dose 10 μM, read-out: Growth inhibition %
Protocol: as §1, §2

LOX IMVI = assay: NCI-60 one-dose screen, LOX IMVI; settings: Homo sapiens, melanoma, single dose 10 μM, read-out: Growth inhibition %
Protocol: as §1, §2

HT29 = assay: NCI-60 one-dose screen, HT29; settings: Homo sapiens, HT-29; HT29, colon cancer; single dose 10 μM; read-out: Growth inhibition %
Protocol: as §1, §2

NCI-H226 = assay: NCI-60 one-dose screen, NCI-H226; settings: Homo sapiens; NCI-H226, non-small cell lung cancer; single dose 10 μM; read-out: Growth inhibition %
Protocol: as §1, §2

KM12 = assay: NCI-60 one-dose screen, KM12; settings: Homo sapiens; KM12, colon cancer; single dose 10 μM; read-out: Growth inhibition %
Protocol: as §1, §2

UACC-62 = assay: NCI-60 one-dose screen, UACC-62; settings: Homo sapiens; UACC-62, melanoma; single dose 10 μM; read-out: Growth inhibition %
Protocol: as §1, §2

SF-295 = assay: NCI-60 one-dose screen, SF-295; settings: Homo sapiens; SF-295, CNS cancer; single dose 10 μM; read-out: Growth inhibition %
Protocol: as §1, §2

HOP-62 = assay: NCI-60 one-dose screen, HOP-62; settings: Homo sapiens; HOP-62, non-small cell lung cancer; single dose 10 μM; read-out: Growth inhibition %
Protocol: as §1, §2

A498 = assay: NCI-60 one-dose screen, A498; settings: Homo sapiens; A498, renal cancer; single dose 10 μM; read-out: Growth inhibition %
Protocol: as §1, §2

SF-539 = assay: NCI-60 one-dose screen, SF-539; settings: Homo sapiens; SF-539, CNS cancer; single dose 10 μM; read-out: Growth inhibition %
Protocol: as §1, §2

SK-MEL-2 = assay: NCI-60 one-dose screen, SK-MEL-2; settings: Homo sapiens; SK-MEL-2, melanoma; single dose 10 μM; read-out: Growth inhibition %
Protocol: as §1, §2

SN12C = assay: NCI-60 one-dose screen, SN12C; settings: Homo sapiens, renal cancer, single dose 10 μM, read-out: Growth inhibition %
Protocol: as §1, §2

SK-OV-3 = assay: NCI-60 one-dose screen, SK-OV-3; settings: Homo sapiens; SK-OV-3, ovarian cancer; single dose 10 μM; read-out: Growth inhibition %
Protocol: as §1, §2

HL-60(TB) = assay: NCI-60 one-dose screen, HL-60(TB); settings: Homo sapiens, leukaemia, single dose 10 μM, read-out: Growth inhibition %
Protocol: as §1, §2

MDA-MB-468 = assay: NCI-60 one-dose screen, MDA-MB-468; settings: Homo sapiens; MDA-MB-468, breast cancer; single dose 10 μM; read-out: Growth inhibition %
Protocol: as §1, §2

M14 = assay: NCI-60 one-dose screen, M14; settings: Homo sapiens; M14, melanoma; single dose 10 μM; read-out: Growth inhibition %
Protocol: as §1, §2

K-562 = assay: NCI-60 one-dose screen, K-562; settings: Homo sapiens, K562; K-562, leukaemia; single dose 10 μM; read-out: Growth inhibition %
Protocol: as §1, §2

Row | SMILES | inhibition at 10 µM (NCI-H522) [%] | inhibition at 10 µM (SNB-19) [%] | inhibition at 10 µM (HCC-2998) [%] | inhibition at 10 µM (RPMI-8226) [%] | inhibition at 10 µM (786-0) [%] | inhibition at 10 µM (MOLT-4) [%] | inhibition at 10 µM (SK-MEL-28) [%] | inhibition at 10 µM (MDA-MB-231-ATCC) [%] | inhibition at 10 µM (LOX IMVI) [%] | inhibition at 10 µM (HT29) [%] | inhibition at 10 µM (NCI-H226) [%] | inhibition at 10 µM (KM12) [%] | inhibition at 10 µM (UACC-62) [%] | inhibition at 10 µM (SF-295) [%] | inhibition at 10 µM (HOP-62) [%] | inhibition at 10 µM (A498) [%] | inhibition at 10 µM (SF-539) [%] | inhibition at 10 µM (SK-MEL-2) [%] | inhibition at 10 µM (SN12C) [%] | inhibition at 10 µM (SK-OV-3) [%] | further results
1 | O=C(NNC(=O)N1c2ccccc2C=Cc2ccccc21)c1ccccc1 [Compound 4a, N′-Benzoyl-5H-dibenzo[b,f]azepine-5-carbohydrazide] | < 10 | < 10 | < 10 | < 10 | < 10 | < 10 | < 10 | < 10 | < 10 | < 10 | < 10 | < 10 | < 10 | < 10 | < 10 | < 10 | < 10 | < 10 | < 10 | < 10 | inhibition at 10 µM (HL-60(TB)): < 10%; inhibition at 10 µM (MDA-MB-468): < 10%; inhibition at 10 µM (M14): < 10%; inhibition at 10 µM (K-562): < 10%
2 | O=C(NNC(=O)N1c2ccccc2C=Cc2ccccc21)c1ccc(Br)cc1 [Compound 4b, N′-(4-Bromobenzoyl)-5H-dibenzo[b,f]azepine-5-carbohydrazide] | < 10 | < 10 | < 10 | < 10 | 21.1 | < 10 | < 10 | < 10 | < 10 | < 10 | < 10 | < 10 | < 10 | < 10 | < 10 | < 10 | < 10 | < 10 | < 10 | < 10 | inhibition at 10 µM (HL-60(TB)): < 10%; inhibition at 10 µM (MDA-MB-468): < 10%; inhibition at 10 µM (M14): < 10%; inhibition at 10 µM (K-562): < 10%
3 | O=C(NNC(=O)N1c2ccccc2C=Cc2ccccc21)c1ccc(Cl)cc1 [Compound 4c, N′-(4-Chlorobenzoyl)-5H-dibenzo[b,f]azepine-5-carbohydrazide] | < 10 | < 10 | < 10 | < 10 | < 10 | < 10 | < 10 | < 10 | < 10 | < 10 | < 10 | < 10 | < 10 | < 10 | < 10 | < 10 | < 10 | < 10 | < 10 | < 10 | inhibition at 10 µM (HL-60(TB)): < 10%; inhibition at 10 µM (MDA-MB-468): < 10%; inhibition at 10 µM (M14): < 10%; inhibition at 10 µM (K-562): < 10%
4 | Cc1ccc(C(=O)NNC(=O)N2c3ccccc3C=Cc3ccccc32)cc1 [Compound 4d, N′-(4-Methylbenzoyl)-5H-dibenzo[b,f]azepine-5-carbohydrazide] | < 10 | < 10 | < 10 | < 10 | < 10 | < 10 | < 10 | < 10 | < 10 | < 10 | < 10 | < 10 | < 10 | < 10 | < 10 | < 10 | < 10 | < 10 | < 10 | < 10 | inhibition at 10 µM (HL-60(TB)): < 10%; inhibition at 10 µM (MDA-MB-468): < 10%; inhibition at 10 µM (M14): < 10%; inhibition at 10 µM (K-562): < 10%
5 | O=C(NNC(=O)N1c2ccccc2C=Cc2ccccc21)c1ccc([N+](=O)[O-])cc1 [Compound 4e, N′-(4-Nitrobenzoyl)-5H-dibenzo[b,f]azepine-5-carbohydrazide] | < 10 | < 10 | < 10 | < 10 | < 10 | < 10 | < 10 | < 10 | < 10 | < 10 | < 10 | < 10 | < 10 | < 10 | < 10 | < 10 | < 10 | < 10 | < 10 | < 10 | inhibition at 10 µM (HL-60(TB)): < 10%; inhibition at 10 µM (MDA-MB-468): < 10%; inhibition at 10 µM (M14): < 10%; inhibition at 10 µM (K-562): < 10%
6 | O=C(NNC(=O)N1c2ccccc2C=Cc2ccccc21)c1ccc2ccccc2c1 [Compound 4f, N′-(2-Naphthoyl)-5H-dibenzo[b,f]azepine-5-carbohydrazide] | 14.1 | < 10 | < 10 | < 10 | < 10 | < 10 | < 10 | < 10 | < 10 | 11.4 | < 10 | < 10 | 18.9 | < 10 | < 10 | < 10 | < 10 | < 10 | < 10 | < 10 | inhibition at 10 µM (HL-60(TB)): 10%; inhibition at 10 µM (MDA-MB-468): 12.3%; inhibition at 10 µM (M14): < 10%; inhibition at 10 µM (K-562): 12.8%
7 | O=C(Cc1ccccc1)NNC(=O)N1c2ccccc2C=Cc2ccccc21 [Compound 4g, N′-(2-Phenylacetyl)-5H-dibenzo[b,f]azepine-5-carbohydrazide] | < 10 | < 10 | < 10 | < 10 | < 10 | < 10 | < 10 | < 10 | < 10 | < 10 | < 10 | < 10 | < 10 | < 10 | < 10 | < 10 | < 10 | < 10 | < 10 | < 10 | inhibition at 10 µM (HL-60(TB)): < 10%; inhibition at 10 µM (MDA-MB-468): < 10%; inhibition at 10 µM (M14): < 10%; inhibition at 10 µM (K-562): < 10%
